Reference: article PMC3025356, “Mechanism of the Ca^2+-Dependent Interaction between S100A4 and Tail Fragments of Nonmuscle Myosin Heavy Chain IIA” (Journal of Molecular Biology, 2011)
Read-outs that look alike come from different tables or passages of the source. One block for each compound: values may come before it.

Key:
S100A4 [1] = molecular target: T1, S100A4 (Homo sapiens, UniProt P26447); details: cited from earlier work
T1 construct: We used full-length S100A4 for this analysis; made in house; host or cells: Escherichia coli BL21(DE3)
T1 sequence (P26447 whole entry): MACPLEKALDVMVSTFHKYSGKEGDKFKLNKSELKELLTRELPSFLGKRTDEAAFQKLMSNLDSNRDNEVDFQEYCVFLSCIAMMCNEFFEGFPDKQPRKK
Text: The site between helix III and helix IV of S100A4, exposed in the presence of Ca^2+, could accommodate an α-helical target of about 16 residues. The longer M32 mini ...

S100A4 [2] = molecular target: T1, S100A4; test: Fluorescence anisotropy titration, F-M16^N binding to S100A4
Protocol: Titration (circles) was carried out in 20 mM NaCl, 10 mM Hepes, 1 mM Mg^2+, and 100 μM Ca^2+ at pH 7.5 and 20 °C. […] (squares).
Fluorescence spectra and anisotropy measurements were recorded using an SLM 8000 spectrofluorimeter (SLM, Urbana, IL). Fluorescein anisotropy measurements were carried out in L-format using a 515-nm emission filter. The four combinations of vertical and horizontal polarisers (vv, vh, hh, and hv) were each recorded for 30 s, and then the initial setting (vv) was re-read to check for signal stability. Calculations of the total fluorescence (Ivv + 2Ivh) and anisotropy (Ivv − Ivh/(Ivv + 2Ivh)), corrected for the g factor (hh/hv), were performed using an Excel spreadsheet. […] Note that the small correction for the emission intensity weighting to the observed anisotropy was not applied to these competitive titrations as the error will tend to cancel.

S100A4 [3] = molecular target: T1, S100A4; test: Stopped-flow fluorescein fluorescence, kinetics of myosin peptide binding to S100A4; details: for dissociation rate constants, F-M16N vs M32: modelled
Protocol: (§1) Stopped-flow measurements were carried out using an SX18-MV apparatus (Applied Photophysics Ltd., Leatherhead, UK) with a dead time of 1.5 ms.[40] Records were generally captured on a logarithmic time base. Absorption (turbidity) measurements were usually recorded using a 10-mm pathlength, while fluorescence was recorded with a 2-mm pathlength for excitation and emission. The stated concentrations of components refer to the reaction chamber after mixing, unless otherwise indicated. Tyrosine fluorescence was excited at 280 nm, and the emission was collected through a UG11 bandpass filter plus a 305-nm longpass filter.[18] Fluorescein fluorescence was excited at 480 nm, and the emission was detected through a 515-nm longpass filter. Quin-2 fluorescence was measured by excitation at 336 nm, and emission was collected with a 455-nm longpass filter. For simultaneous recording of light scatter, a second channel was monitored through a UG11 filter. Rate constants were obtained by fitting to single-exponential or double-exponential functions using Kaleidagraph (Synergy Software) or Applied Photophysics Pro-Data software. Modeling of kinetic schemes was performed using Berkeley Madonna software.
The value of K5 (scheme 2) was estimated from two independent experiments. From the competition
(§2) A second estimate was calculated from the apparent Ca2+ binding constant observed in the turbidity assay […]
Fig. S2. (a) Displacement of 0.1
monitored by fluorescein emission intensity. […] (b)
Ca2+ was mixed with 1 mM EGTA. […] Note in these
stopped-flow measurements of fluorescein intensity, no polarising optics were present at the magic angle

S100A4 [4] = molecular target: T1, S100A4; test: Summary of rate and equilibrium constants defined according to Scheme 1; type: binding; details: for k− 3: Ca^2+ dissociation from peptide–S100A4–Ca^2+; for k2: peptide association to S100A4–Ca^2+; for k− 2: peptide dissociation from S100A4–Ca^2+
Text: The interaction of myosin tail fragments (M) with S100A4 depends on [Ca^2+], with little detectable binding in the absence of Ca^2+.[2,7,17] Scheme 1 presents a minimal pathway describing the thermodynamics and kinetics of this interaction, where arrow lengths indicate the approximate position of the equilibria involved.
[formula] Scheme 1 Ca2+ and myosin peptide (M) binding to S100A4.
The binding of Ca^2+ and a target peptide to S100A4, as shown in Scheme 1, is thermodynamically coupled so that K1K2 = K0K3. For simplicity, we assume a 1:1 stoichiometry and independent binding sites, which are unlikely to be true at least for the longer fragments. However, the trends in binding remain valid for more complex cases. Binding of target peptides to S100A4 in the absence of Ca^2+ is weak (K0 > 100 μM), while binding of target peptides to S100A4 in the presence of Ca^2+ (K2) is around a micromolar or less for longer fragments. Knowing that Ca^2+ binding to S100A4 has K1 = 2–5 μM (from the ITC data above and the literature[14,17,18]) requires that Ca^2+ binding to the M–S100A4 complex be very tight (K3 < 0.15 μM and even lower for M200). The latter cannot be easily determined directly as it requires protein concentrations greater than K0 (i.e., >>100 μM) so that the proteins remain bound together throughout the titration with Ca^2+. However, K3 is readily determined by calculation because values or limits for K0, K1, and K2 are available (Table 2). This aspect is addressed further below for M200, which has the complication of forming filaments at the ionic strength used.

S100A4 [5] = molecular target: T1, S100A4; test: Quin-2 fluorescence, Ca^2+ dissociation from S100A4 in the presence of target peptides; type: binding
Protocol: Ca^2+ dissociation measurements for wild-type S100A4, using Quin-2 as described above, were repeated as a control for the effect of target peptides on this process. On mixing 10 μM S100A4 in the presence of Ca^2+ with 100 μM Quin-2, the observed profile was fitted to a single exponential with kobs = 17 s^− 1 (Fig. 5a; cf. k− 1 in Scheme 1).
Fig. 5 Dissociation of Ca^2+ from S100A4 in the absence and in the presence of target peptides monitored using Quin-2 fluorescence. (a) Mixed with 100 μM Quin-2 was 10 μM S100A4 + 50 μM Ca^2+ (stopped-flow reaction chamber concentrations). A superposed fit to a single exponential yields kobs = 17 s^− 1. […] (d) As in (a), but with 2.5 μM M200 premixed with 5 μM S100A4. A biphasic exponential fit yielded rate constants of 13 s^− 1 (A = 26%) and 0.30 s^− 1 (A = 74%). […] Experiments were carried out in either 20 mM NaCl, 20 mM Tris, 1 mM DTT, and 100 μM Ca^2+ at pH 7.5 and 20 °C (a and b; cf. Malashkevich et al.[17]), or 100 mM NaCl, 10 mM Hepes, and 100 μM Ca^2+ at pH 7.5 and 20 °C (c and d). […] Rate constants were unaffected by the inclusion of 1 mM Mg^2+.
as §1, with “Rate constants were obtained by fitting to single-exponential or double-exponential functions using Kaleidagraph (Synergy Software) or Applied Photophysics Pro-Data software. Modeling of kinetic schemes was performed using Berkeley Madonna software.” left out

S100A4 [6] = molecular target: T1, S100A4; test: Competition of M32/M16^N with M200 for S100A4 (turbidity); type: biochemical; details: 250 μM peptide, 5 μM M200, 10 μM S100A4, Ca^2+
Protocol: Fig. 9 Dissociation of M200 filaments by S100A4. (a) Initially, M200 was added (i) from a concentrated stock in 0.5 M NaCl to give a final concentration of 5 μM M200 (with respect to the polypeptide chain) in 100 mM NaCl, 10 mM Hepes, and 0.1 mM Ca^2+ at pH 7.5 and 20 °C. A biphasic rise in turbidity was recorded for 200 s (continuous line). Then 10 μM S100A4 (with respect to monomer concentration) was added (ii), followed by 0.2 mM EGTA (iii) and 1 mM Ca^2+ (iv). […] (b) M200 was diluted (i) into 100 mM NaCl to form filaments as in (a), then 5 μM S100A4 was added (ii), causing a 54% drop in turbidity. A further 5 μM S100A4 (iii) caused turbidity to fall to almost zero. (c) Stopped-flow records monitoring the dissociation of 5 μM M200 filaments on jumping [NaCl] from 100 mM to 120 mM NaCl. Other components of the buffer were 20 mM Hepes, 1 mM Mg^2+, and 100 μM Ca^2+ at pH 7.5 and 20 °C. […] In the presence of 20 μM S100A4 (lower trace), the turbidity decreased by 87% with a rate constant of 0.2 s^− 1.
Further information on Scheme 2 was obtained from competition assays. […] An independent estimate of K5 based on the Ca^2+ dependence of the turbidity assay yielded a value of 0.003 μM (see Supplementary Data).
The decrease in fluorescence, […]
that F-M16N binding was slightly faster. […]
as §2

Compound: R1893-R1923 myosin fragment: R1893-R1923 myosin fragment of Malashkevich et al.
- stoichiometry (S100A4 [1]): ~0.5 mol of peptide per mole of S100A4 (dimer)

Compound: CSCC[C@H](NC(=O)[C@H](C)NC(=O)[C@H](CC(=O)O)NC(=O)CCCCCNC(=S)Nc1ccc2c(c1)C(=O)OC21c2ccc(O)cc2Oc2cc(O)ccc21)C(=O)N[C@@H](CC(N)=O)C(=O)N[C@@H](CCCNC(=N)N)C(=O)N[C@@H](CCC(=O)O)C(=O)N[C@H](C(=O)N[C@@H](CO)C(=O)N[C@@H](CO)C(=O)N[C@@H](CC(C)C)C(=O)N[C@@H](CCCCN)C(=O)N[C@@H](CC(N)=O)C(=O)N[C@@H](CCCCN)C(=O)N[C@@H](CC(C)C)C(=O)N[C@@H](CCCNC(=N)N)C(=O)N[C@@H](CCCNC(=N)N)C(N)=O)C(C)C [F-M16^N]
- quench of total fluorescein fluorescence on binding (S100A4 [2]): ~35%
- displacement rate constant by excess M32 (S100A4 [3]; 0.1 μM F-M16^N, 5 μM S100A4, 60 μM M32, Ca^2+): 7.7 s^− 1
- kobs on mixing with EGTA (Ca^2+ dissociation from complex, k− 3) (S100A4 [3]; 0.1 μM F-M16^N, 10 μM S100A4, 50 μM Ca^2+, 1 mM EGTA): 9.4 s^− 1
- kobs of binding (S100A4 [3]; 0.1 μM F-M16^N, 25 μM S100A4): 138 s^− 1
- calculated kobs via k− 2 and k− 1 route (S100A4 [3]; 10 μM S100A4): 1.8 s^− 1
- maximum kobs (S100A4 [3]; above 25 μM S100A4): 150 s^− 1
- association rate constant k2 relative to M32 (S100A4 [3]; competition with equimolar M32, modelled): about twice as large as that of M32
- fluorescence quench overshoot (S100A4 [3]; equimolar F-M16N and M32 mixed with equimolar S100A4): 12%
- amplitude of fluorescence decrease with competitor (S100A4 [3]; equimolar F-M16N and M32 with equimolar S100A4, relative to absence of M32): about half the amplitude observed in the absence of M32
- dissociation rate constants, F-M16N vs M32 (S100A4 [3]): similar
- kon (S100A4 [3]; read-out: association rate constant kon (k2)): 4.9e+06 M⁻¹ s⁻¹
- koff (S100A4 [3]; read-out: dissociation rate constant koff (k− 2)): 6.2 s⁻¹
- k3, Ca^2+ binding to preformed peptide–S100A4 complex (S100A4 [3]; thermodynamic balance of Scheme 1): > 5 × 10^8 M^− 1 s^− 1
- k1 (S100A4 [4]; Ca^2+ association to free S100A4, common to all targets): 3.2 μM^− 1 s^− 1
- k3 (S100A4 [4]; Ca^2+ association to peptide–S100A4): > 500 μM^− 1 s^− 1
- k− 1 (S100A4 [4]; Ca^2+ dissociation from free S100A4, common to all targets): 16 s^− 1
- k− 3 (S100A4 [4]): 9.4 s^− 1
- k2 (S100A4 [4]): 4.9 μM^− 1 s^− 1
- k− 2 (S100A4 [4]): 6.2 s^− 1

- kobs, Ca^2+ dissociation with peptide (S100A4 [5]; 50 μM peptide premixed with 10 μM S100A4, 100 mM NaCl, 10 mM Hepes, 100 μM Ca^2+, pH 7.5, 20 °C): 3.3 s^− 1
- dissociation rate constants, F-M16N vs M32 (S100A4 [3]): similar
- Kd (S100A4 [4]; Ca^2+ binding to peptide–S100A4, limit from K3 = K1K2/K0, read-out: K3): < 0.15 µM
- k− 3 (S100A4 [4]): 3.2 s^− 1
- k2 (S100A4 [4]): ∼ 2 μM^− 1 s^− 1
- Kd (S100A4 [4]; peptide binding to S100A4 without Ca^2+, read-out: K0): > 100 µM
- k− 2 (S100A4 [4]): ∼ 6 s^− 1
- inhibition of turbidity change amplitude (S100A4 [6]): 50%
Compound: CSCC[C@H](NC(=O)[C@H](C)NC(=O)[C@H](CC(=O)O)NC(=O)[C@H](C)NC(C)=O)C(=O)N[C@@H](CC(N)=O)C(=O)N[C@@H](CCCNC(=N)N)C(=O)N[C@@H](CCC(=O)O)C(=O)N[C@H](C(=O)N[C@@H](CO)C(=O)N[C@@H](CO)C(=O)N[C@@H](CC(C)C)C(=O)N[C@@H](CCCCN)C(=O)N[C@@H](CC(N)=O)C(=O)N[C@@H](CCCCN)C(=O)N[C@@H](CC(C)C)C(=O)N[C@@H](CCCNC(=N)N)C(=O)N[C@@H](CCCNC(=N)N)C(=O)NCC(=O)N[C@@H](CC(=O)O)C(=O)N[C@@H](CC(C)C)C(=O)N1CCC[C@H]1C(=O)N[C@@H](Cc1ccccc1)C(=O)N[C@H](C(=O)N[C@H](C(=O)N1CCC[C@H]1C(=O)N[C@@H](CCCNC(=N)N)C(=O)N[C@@H](CCCNC(=N)N)C(=O)N[C@@H](CCSC)C(=O)N[C@@H](C)C(=O)N[C@@H](CCCNC(=N)N)C(=O)N[C@@H](CCCCN)C(=O)NCC(N)=O)C(C)C)C(C)C)C(C)C [M32]
- stoichiometry (discussion) (S100A4 [5]; S100A4 concentration from absorbance at 280 nm): one mol of M32 peptide binds to two S100A4 monomers
